Measurements taken from patent US20170291905A1, “ARGININE […] INHIBITORS AND USES THEREOF” (Epizyme, Inc., priority 2014, published 2017).
pIC50: −log10 of the molar value.

Experiments:
[1] = target: T1, full-length human PRMT1 isoform 1 (GST-tagged) (Homo sapiens, UniProt Q99873); assay: PRMT1 biochemical assay (3H-SAM Flashplate, histone H4 36-50 peptide); conditions: 0.5 nM PRMT1, 30 min preincubation, 20 nM peptide
T1 construct: GST-tagged PRMT1 was eluted with 50 mM Tris, 2 mM glutathione, pH 7.8, dialysed in buffer A and concentrated; made in house; host or cells: High Five insect cells (baculovirus)
T1 sequence (Q99873 with tags, fused parts or gaps): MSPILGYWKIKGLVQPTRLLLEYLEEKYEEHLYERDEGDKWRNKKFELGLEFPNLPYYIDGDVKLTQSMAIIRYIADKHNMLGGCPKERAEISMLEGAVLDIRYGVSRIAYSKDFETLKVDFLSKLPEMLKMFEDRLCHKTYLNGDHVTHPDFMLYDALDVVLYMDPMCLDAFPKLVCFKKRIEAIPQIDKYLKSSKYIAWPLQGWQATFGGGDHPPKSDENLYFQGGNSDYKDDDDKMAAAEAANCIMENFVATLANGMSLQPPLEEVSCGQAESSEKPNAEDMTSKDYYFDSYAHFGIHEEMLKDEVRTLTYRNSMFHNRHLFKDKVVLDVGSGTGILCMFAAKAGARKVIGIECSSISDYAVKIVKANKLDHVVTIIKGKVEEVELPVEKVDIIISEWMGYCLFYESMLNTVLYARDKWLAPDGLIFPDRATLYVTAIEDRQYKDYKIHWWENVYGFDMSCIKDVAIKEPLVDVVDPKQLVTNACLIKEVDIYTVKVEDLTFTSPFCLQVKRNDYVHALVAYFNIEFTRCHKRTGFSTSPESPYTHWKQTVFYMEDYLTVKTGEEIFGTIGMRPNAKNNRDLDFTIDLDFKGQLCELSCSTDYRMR
Text: (§1) S-adenosylmethionine (SAM), S-adenosylhomocysteine (SAH), bicine, Tween20, dimethylsulfoxide (DMSO), bovine skin gelatin (BSG), and Tris(2-carboxyethyl)phosphine hydrochloride solution (TCEP) were purchased from Sigma-Aldrich at the highest level of purity possible. ^3H-SAM was purchase from American Radiolabeled Chemicals with a specific activity of 80 Ci/mmol. 384-well streptavidin Flashplates were purchased from PerkinElmer.
Peptide representative of human histone H4 residues 36-50 was synthesized with an N-terminal linker-affinity tag motif and a C-terminal amide cap by 21st Century Biochemicals. The peptide was purified by high-performance liquid chromatography (HPLC) to greater than 95% purity and confirmed by liquid chromatography mass spectrometry (LC-MS). The sequence was Biot-Ahx-[…]-amide (SEQ ID NO.:1).
Full-length human PRMT1 isoform 1 (NM_001536.5) transcript clone was amplified from an HEK 293 cDNA library, incorporating flanking 5′ sequence encoding a FLAG tag ([…]) (SEQ ID NO.:2) fused directly to Met 1 of PRMT1. The amplified gene was subcloned into pFastBacI (Life Technologies) modified to encode an N-terminal GST tag and a TEV cleavage sequence
Recombinant baculovirus were generated according to Bac-to-Bac kit instructions (Life Technologies). Protein over-expression was accomplished by infecting exponentially growing High Five insect cell culture at 1.5×10^6 cell/ml with 1:100 ratio of virus. Infections were carried out at 27° C. for 48 hours, harvested by centrifugation, and stored at −80° C. for purification.
GST-tagged PRMT1 was eluted with 50 mM Tris, 2 mM glutathione, pH 7.8, dialysed in buffer A and concentrated to 1 mg/mL. The purity of recovered protein was 73%. Reference: Wasilko, D. J. and S. E. Lee: “TIPS: titerless infected-cells preservation and scale-up” Bioprocess J., 5 (2006), pp. 29-32.
General Procedure for PRMT1 Enzyme Assays on Peptide Substrates.
The assays were all performed in a buffer consisting of 20 mM Bicine (pH=7.6), 1 mM TCEP, 0.005% BSG, and 0.002% Tween 20, prepared on the day of use. Compounds in 100% DMSO (1 ul) were spotted into a polypropylene 384-well V-bottom plates (Greiner) using a Platemate Plus outfitted with a 384-channel head (Thermo Scientific). DMSO (1 ul) was added to Columns 11, 12, 23, 24, rows A-H for the maximum signal control and 1 ul of SAH, a known product and inhibitor of PRMT1, was added to columns 11, 12, 23, 24, rows I-P for the minimum signal control. A cocktail (40 ul) containing the PRMT1 enzyme was added by Multidrop Combi (Thermo-Fisher). The compounds were allowed to incubate with PRMT1 for 30 min at room temperature, then a cocktail (10 ul) containing SAM and peptide was added to initiate the reaction (final volume=51 ul). The final concentrations of the components were as follows: PRMT1 was 0.5 nM, ^3H-SAM was 200 nM, non-radiolabeled SAM was 1.5 uM, peptide was 20 nM, SAH in the minimum signal control wells was 1 mM, and the DMSO concentration was 2%. The assays were stopped by the addition of non-radiolabeled SAM (10 ul) to a final concentration of 300 uM, which dilutes the ^3H-SAM to a level where its incorporation into the peptide substrate is no longer detectable. 50 ul of the reaction in the 384-well polypropylene plate was then transferred to a 384-well Flashplate and the biotinylated peptides were allowed to bind to the streptavidin surface for at least 1 hour before being washed once with 0.1% Tween20 in a Biotek ELx405 plate washer. The plates were then read in a PerkinElmer TopCount plate reader to measure the quantity of ^3H-labeled peptide bound to the Flashplate surface, measured as disintegrations per minute (dpm) or alternatively, referred to as counts per minute (cpm).
(§2) Where dpm=disintegrations per minute, cmpd=signal in assay well, and min and max are the respective minimum and maximum signal controls. […]

[2] = target: full-length human PRMT6 (Flag- and His-tagged) (Homo sapiens, UniProt Q96LA8); assay: PRMT6 biochemical assay (3H-SAM Flashplate, histone H4 36-50 K44me1 peptide); conditions: 1 nM PRMT6, 30 min preincubation, 75 nM peptide
full-length human PRMT6 (Flag- and His-tagged), sequence (Q96LA8 with tags, fused parts or gaps): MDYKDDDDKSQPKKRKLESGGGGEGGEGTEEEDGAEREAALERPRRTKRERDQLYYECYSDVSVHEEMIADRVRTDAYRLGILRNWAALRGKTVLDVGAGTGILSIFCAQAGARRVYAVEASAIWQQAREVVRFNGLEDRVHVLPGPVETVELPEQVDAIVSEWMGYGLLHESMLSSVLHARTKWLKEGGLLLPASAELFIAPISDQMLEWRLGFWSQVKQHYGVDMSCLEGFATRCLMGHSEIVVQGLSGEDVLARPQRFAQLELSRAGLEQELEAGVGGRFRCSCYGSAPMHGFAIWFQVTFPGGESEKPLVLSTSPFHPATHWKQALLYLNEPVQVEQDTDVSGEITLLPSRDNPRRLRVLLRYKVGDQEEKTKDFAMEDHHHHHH
Text: as §1, with “(BSG), sodium butyrate” for “(BSG),”
Peptide representative of human histone H4 residues 36-50 was synthesized with an N-terminal linker-affinity tag motif and a C-terminal amide cap by 21st Century Biochemicals. The peptide was purified by high-performance liquid chromatography (HPLC) to greater than 95% purity and confirmed by liquid chromatography mass spectrometry (LC-MS). The sequence was Biot-Ahx-[…]-amide and contained a monomethylated lysine at position 44 (SEQ ID NO.:5).
Full-length human PRMT6 (NM_018137.2) transcript clone was amplified from an HEK 293 cDNA library, incorporating a flanking 5′ sequence encoding a FLAG tag ([…]) (SEQ ID NO.:6) fused directly to Ser 2 of PRMT6 and a 3′ sequence encoding a hexa His sequence (HHHHHH) (SEQ ID NO.: 17) fused directly to Asp 375. The amplified gene was subcloned into pFastBacMam (Viva Biotech).
Recombinant baculovirus were generated according to Bac-to-Bac kit instructions (Life Technologies). […] Infections were carried out at 37° C. for 48 hours, harvested by centrifugation, and stored at −80° C. for purification.
Column was washed with 20 mM imidazole in the same buffer and Flag-PRMT6-His was eluted with 150 mM imidazole. Pooled fractions were dialysed against buffer Ni-A and further purified by anti-flag M2 affinity chromatography. Flag-PRMT6-His was eluted with 200 ug/ml FLAG peptide in the same buffer. Pooled fractions were dialysed in 20 mM Tris, 150 mM NaCl, 10% glycerol and 5 mM β-mercaptoethanol, pH 7.8. The purity of recovered protein was 95%.
General Procedure for PRMT6 Enzyme Assays on Peptide Substrates.
The assays were all performed in a buffer consisting of 20 mM Bicine (pH=7.6), 1 mM TCEP, 0.005% BSG, and 0.002% Tween 20, prepared on the day of use. Compounds in 100% DMSO (1 ul) were spotted into a polypropylene 384-well V-bottom plates (Greiner) using a Platemate Plus outfitted with a 384-channel head (Thermo Scientific). DMSO (1 ul) was added to Columns 11, 12, 23, 24, rows A-H for the maximum signal control and 1 ul of SAH, a known product and inhibitor of PRMT6, was added to columns 11, 12, 23, 24, rows I-P for the minimum signal control. A cocktail (40 ul) containing the PRMT6 enzyme was added by Multidrop Combi (Thermo-Fisher). The compounds were allowed to incubate with PRMT6 for 30 min at room temperature, then a cocktail (10 ul) containing SAM and peptide was added to initiate the reaction (final volume=51 ul). The final concentrations of the components were as follows: PRMT6 was 1 nM, ^3H-SAM was 200 nM, non-radiolabeled SAM was 250 nM, peptide was 75 nM, SAH in the minimum signal control wells was 1 mM, and the DMSO concentration was 2%. The assays were stopped by the addition of non-radiolabeled SAM (10 ul) to a final concentration of 400 uM, which dilutes the ^3H-SAM to a level where its incorporation into the peptide substrate is no longer detectable. 50 ul of the reaction in the 384-well polypropylene plate was then transferred to a 384-well Flashplate and the biotinylated peptides were allowed to bind to the streptavidin surface for at least 1 hour before being washed once with 0.1% Tween20 in a Biotek ELx405 plate washer. The plates were then read in a PerkinElmer TopCount plate reader to measure the quantity of ^3H-labeled peptide bound to the Flashplate surface, measured as disintegrations per minute (dpm) or alternatively, referred to as counts per minute (cpm).
as §2

pIC50 [1] | pIC50 [2] | SMILES
5.23 | < 5.00 | CNCCN(C)Cc1c([C@H]2CC[C@@]3(CC2)CC(C)(C)CO3)nnn1C [compound 53]
5.03 | 5.00 | CNCCN(C)Cc1c([C@H]2CC[C@]3(CC2)CC(C)(C)CO3)nnn1C [compound 54]
8.14 | 6.72 | CN(CCN)Cc1cn(C)nc1[C@H]1CC[C@@]2(CC1)CC(C)(C)CO2 [compound 55]
7.51 | 6.07 | CN(CCN)Cc1cn(C)nc1[C@H]1CC[C@]2(CC1)CC(C)(C)CO2 [compound 56]
